Laboratory results as given in patent US20250091992A1, “NOVEL COMPOUNDS AND USES THEREOF” (KANNA HEALTH LIMITED, priority 2021, published 2025).
pIC50: −log10 of the molar value. Where two headings read alike, the source gives them in different places.

Assays:
IL-1β = assay: LPS-induced cytokine release from human PBMCs: IL-1β; assay type: cell-based; conditions: high concentration (10.0 μM)
Protocol: (§1) Data were tested for normality.

TNF-α = assay: LPS-induced cytokine release from human PBMCs: TNF-α; assay type: cell-based
Protocol: as §1

IL-10 = assay: LPS-induced cytokine release from human PBMCs: IL-10; assay type: cell-based; conditions: high concentration (10.0 μM)
Protocol: as §1

[1] = molecular target: T1, human serotonin transporter (Homo sapiens, UniProt P31645); conditions: for inhibition: 10 µM;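 for all read-outs here: Read-out: uptake of tritium-labelled serotonin, measured by scintillation counting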
Protocol: (§6) Following incubation, [^3H] serotonin uptake was quantified by a standard scintillation counting method.

[2] = molecular target: human recombinant PDE-4B1 (Homo sapiens, UniProt Q07343); assay: PDE4-B1 assay (Compounds of Formula I), SPA; assay type: biochemical; conditions: for IC50: 4-parameter logistical fit, two technical replicates
Protocol: (§2) 20 mins after addition of human recombinant PDE-4B1 (1.2 IEU) or PDE-4D2 (1.5 IEU), SPA beads were added and incubated at 22° C. for a further 30 mins. [^3H]5′AMP was quantified by a standard scintillation counting method.

[3] = molecular target: human recombinant PDE-4D2 (Homo sapiens, UniProt Q08499); assay: PDE4-D2 assay (Compounds of Formula I), SPA; assay type: biochemical; conditions: for IC50: 4-parameter logistical fit, two technical replicates
Protocol: as §2

[4] = molecular target: T1, human serotonin transporter; assay: cell-based
Protocol: as §6

[5] = Hepatocyte stability study; assay type: in vitro ADME; conditions: human hepatocytes
Protocol: The compounds were added at a concentration of 1 μM to human hepatocytes (0.5×10^6 cells/ml in Williams E media supplemented with 2 mM L-glutamine and 25 mM HEPES) and incubated for 0, 5, 10, 20, 40 and 60 min at 37° C. Five replicates were performed for each compound.

[6] = tested on: time spent in centre of open field; assay: Open field test; assay type: in vivo, male C57Bl/6J mice; conditions: for Time spent in centre during open field test, Low dose (0.3 mg/kg): 0.3 mg/kg i.p.; for Time spent in centre during open field test, Low dose (0.3 mg/kg) / Time spent in centre during open field test, High dose (3 mg/kg): 60 minutes before test; for Time spent in centre during open field test, High dose (3 mg/kg): 3 mg/kg i.p.
Protocol: The open field test is routinely applied in order to assess a compounds ability to affect anxiety, and as such as positive result may be indicative of a compounds anxiolytic activity (Kraeuter et al., 2019).
(§3) Male C57Bl/6J mice (3-4 months), were assigned to one of three groups receiving either test compound (0.3, 3.0 mg/kg) or vehicle (0.5% (w/v) methyl cellulose) via the i.p. route, 60 minutes before experimental examination.
(§4) The test compounds used were compound identification numbers 6, 13 and 21 from Table 1.
The duration of time the mouse spent in central, periphery and corners were quantified, with duration in the central area depicted as the primary outcome measure.
(§5) Data were tested for normality and outliers were removed.

time spent immobile = assay: Forced swim test; assay type: in vivo, male C57Bl/6J mice; conditions: 60 minutes before test; for Time spent immobile during forced swim test, Low dose (0.3 mg/kg): 0.3 mg/kg i.p.; for Time spent immobile during forced swim test, High dose (3 mg/kg): 3 mg/kg i.p.
Protocol: The forced swim test is a standard model for examination of potential antidepressant-like activity and represents futility, despair, and motivation behavioural domains.
as §3, §4
The duration of time the mouse spent immobile during the forced swim test was measured.
as §5

in vivo = assay: in vivo; set-up: species or system male C57Bl/6J mice; conditions: male, C57Bl/6J, mouse, ip, 30 mg/kg
Protocol: Groups of 18 male C57Bl/6J mice (weighing between 22.7 and 27.3 g) received a single administration of test compound (30 mg/kg; i.p.) in methylcellulose (0.5% w/v) at a nominal concentration of […].
Three mice from each dose group were subject to cardiac puncture under general anesthesia at 0.25, 0.50, 1.00, 1.50, 2.00 and 4.00 hours post-dose and plasma samples generated for application of standard LC-MS/MS bioanalytical methods.
Quantitation of compound concentration was derived from reference calibration data. Pharmacokinetic data were derived from serial plasma concentrations.

[7] = naturally occurring; cited from earlier work
5-HT transporter = 5-HT transporter (Homo sapiens, UniProt P31645); conditions: Harvey et al., 2011; cited from earlier work
PDE-4B = PDE-4B (Homo sapiens, UniProt Q07343); conditions: Harvey et al., 2011; cited from earlier work
[8] = medium (1.0 μM) and high (10.0 μM) concentration

Chain of human recombinant PDE-4D2 (Q08499 303-809): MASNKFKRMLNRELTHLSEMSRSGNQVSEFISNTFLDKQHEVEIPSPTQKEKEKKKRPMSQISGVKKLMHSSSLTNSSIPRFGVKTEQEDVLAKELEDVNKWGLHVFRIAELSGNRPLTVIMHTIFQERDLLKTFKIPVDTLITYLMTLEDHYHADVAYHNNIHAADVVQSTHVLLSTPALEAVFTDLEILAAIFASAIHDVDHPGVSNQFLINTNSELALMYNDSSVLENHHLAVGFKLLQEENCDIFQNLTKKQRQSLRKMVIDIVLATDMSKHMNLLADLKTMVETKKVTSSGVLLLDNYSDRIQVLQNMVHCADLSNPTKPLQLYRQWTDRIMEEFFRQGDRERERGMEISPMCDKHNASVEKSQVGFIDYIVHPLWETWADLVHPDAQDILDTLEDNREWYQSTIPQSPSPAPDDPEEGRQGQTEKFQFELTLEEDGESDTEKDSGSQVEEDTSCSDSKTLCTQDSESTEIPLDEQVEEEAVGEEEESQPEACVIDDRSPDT
Chain of human recombinant PDE-4B1 (Q07343 whole entry): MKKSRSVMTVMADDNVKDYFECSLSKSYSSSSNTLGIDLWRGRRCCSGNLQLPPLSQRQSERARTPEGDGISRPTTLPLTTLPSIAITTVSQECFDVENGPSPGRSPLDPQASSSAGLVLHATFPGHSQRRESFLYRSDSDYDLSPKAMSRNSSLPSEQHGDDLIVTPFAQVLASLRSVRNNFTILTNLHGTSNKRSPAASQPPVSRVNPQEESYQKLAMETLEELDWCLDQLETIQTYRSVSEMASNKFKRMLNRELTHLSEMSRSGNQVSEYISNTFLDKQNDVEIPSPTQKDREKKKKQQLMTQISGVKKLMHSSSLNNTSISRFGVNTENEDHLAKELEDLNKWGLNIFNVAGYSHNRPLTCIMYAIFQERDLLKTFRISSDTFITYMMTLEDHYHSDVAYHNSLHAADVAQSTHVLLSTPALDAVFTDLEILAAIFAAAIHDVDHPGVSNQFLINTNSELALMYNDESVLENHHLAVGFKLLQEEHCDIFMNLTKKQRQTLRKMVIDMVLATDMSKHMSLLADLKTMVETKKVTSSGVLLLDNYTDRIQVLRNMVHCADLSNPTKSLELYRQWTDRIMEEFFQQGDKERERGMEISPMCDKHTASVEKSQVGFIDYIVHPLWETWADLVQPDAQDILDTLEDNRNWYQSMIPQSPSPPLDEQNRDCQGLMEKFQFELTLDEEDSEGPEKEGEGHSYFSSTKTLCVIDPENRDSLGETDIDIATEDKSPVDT
T1 sequence (P31645 whole entry): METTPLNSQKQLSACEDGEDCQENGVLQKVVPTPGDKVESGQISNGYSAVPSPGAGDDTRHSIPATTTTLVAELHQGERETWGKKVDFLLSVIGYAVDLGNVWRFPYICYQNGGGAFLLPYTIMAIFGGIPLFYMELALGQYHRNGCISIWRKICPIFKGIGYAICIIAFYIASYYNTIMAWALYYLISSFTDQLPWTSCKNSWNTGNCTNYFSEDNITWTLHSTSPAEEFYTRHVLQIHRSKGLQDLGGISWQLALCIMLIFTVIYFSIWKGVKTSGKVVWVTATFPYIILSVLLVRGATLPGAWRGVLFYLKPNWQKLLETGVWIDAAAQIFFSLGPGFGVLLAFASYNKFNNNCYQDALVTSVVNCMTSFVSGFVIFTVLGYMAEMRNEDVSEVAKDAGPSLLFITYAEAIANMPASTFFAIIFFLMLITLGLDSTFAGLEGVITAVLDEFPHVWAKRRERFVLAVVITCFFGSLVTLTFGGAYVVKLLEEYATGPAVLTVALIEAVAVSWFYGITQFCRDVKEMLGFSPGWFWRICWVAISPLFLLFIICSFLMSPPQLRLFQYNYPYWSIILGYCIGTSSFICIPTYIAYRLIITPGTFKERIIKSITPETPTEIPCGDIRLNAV
Chain of PDE-4B (Q07343 whole entry, species assumed): as the sequence (Q07343 whole entry) above
Chain of 5-HT transporter (P31645 whole entry, species assumed): as the sequence (P31645 whole entry) above

For `COc1ccc([C@@]23CCC(=O)C[C@@H]2N(C)CC3)cc1OCC1CC1` [Compound 1], the “Inhibition of IL-β (significance)” value (IL-1β) was “statistically significantly inhibited”, the “Inhibition of TNF-α release compared to vehicle (significance)” value (TNF-α; [8]) was “inhibited TNF-α release at a statistically significant level” and the “Inhibition of IL-10 (significance)” value (IL-10) was “statistically significantly inhibited”.
In the case of `CCCCOc1cc([C@@]23CCC(=O)C[C@@H]2N(C)CC3)ccc1OC` [Compound 2], the pIC50 [1] was 7.52, the “Inhibition of TNF-α release compared to vehicle (significance)” value (TNF-α; [8]) was “inhibited TNF-α release at a statistically significant level” and the “Inhibition of IL-10 (significance)” value (IL-10) was “statistically significantly inhibited”.
With `COc1ccc([C@@]23CCC(=O)C[C@@H]2N(C)CC3)cc1OCC(F)(F)F` [Compound 4] the IC50 [2] was 7.1 µM, the IC50 [3] was 11.3 µM and the pIC50 [4] was greater than 7.00.
With `[2H]C([2H])([2H])Oc1cc([C@@]23CCC(=O)C[C@@H]2N(C)CC3)ccc1OC` [Compound 5] the “half-life compared with non-deuterated mesembrine” value [5] was “shorter half-life”, the hepatocyte CLint at 1 μM ([5]; 1 μM, 37° C., read-out: Qualified Clint) was 21.1 µL/min/1e6 cells and the half-life at 1 μM ([5]; 1 μM, 37° C., read-out: Qualified t1/2) was 65.8 min. The inhibition [1] was 98%, the inhibition at 30 µM ([2]; 30 μM, relative to Ro 20-1724) was 88% and the inhibition at 30 µM ([3]; 30 μM, relative to Ro 20-1724) was 94%.
With `CCOc1cc([C@@]23CCC(=O)C[C@@H]2N(C)CC3)ccc1OC` [Compound 6] the “Time spent in centre during open field test, Low dose (0.3 mg/kg)” value [6] was 9.4 s, the “Time spent in centre during open field test, High dose (3 mg/kg)” value [6] was 8.6 s and the pIC50 [1] was 8.70. For the same compound, the “Time spent immobile during forced swim test, Low dose (0.3 mg/kg)” value (time spent immobile) was 116 s, the “Time spent immobile during forced swim test, High dose (3 mg/kg)” value (time spent immobile) was 88 s and the AUC(0-inf) (in vivo) was 1960 ng·h/mL. It also gave a Cmax (in vivo) of 2610 ng/mL, a Tmax (in vivo) of 15 min and a half-life (in vivo) of 33.6 min.
For `COc1ccc([C@@]23CCC(=O)C[C@@H]2N(C)CC3)cc1OC1CCCC1` [Compound 11], the “Inhibition of IL-β (significance)” value (IL-1β) was “statistically significantly inhibited”, the pIC50 [1] was 6.10 and the “Inhibition of TNF-α release compared to vehicle (significance)” value (TNF-α; all concentrations) was “inhibit TNF-α release at a statistically significant level”. For the same compound, the “Inhibition of IL-10 (significance)” value (IL-10) was “statistically significantly inhibited”, the AUC(0-inf) (in vivo) was 1040 ng·h/mL and the Cmax (in vivo) was 796 ng/mL. It also gave a Tmax (in vivo) of 15 min and a half-life (in vivo) of 56.4 min.
For `COc1ccc([C@@]23CCC(=O)C[C@@H]2N(C)CC3)cc1OCc1ccccc1` [Compound 12], the pIC50 [4] was less than 5.00.
For `C=CCOc1cc([C@@]23CCC(=O)C[C@@H]2N(C)CC3)ccc1OC` [Compound 13], the “Time spent in centre during open field test, Low dose (0.3 mg/kg)” value [6] was 10.6 s, the “Time spent in centre during open field test, High dose (3 mg/kg)” value [6] was 8.8 s and the pIC50 [1] was 7.70. The inhibition [1] was 100%, the “Time spent immobile during forced swim test, Low dose (0.3 mg/kg)” value (time spent immobile) was 119 s and the “Time spent immobile during forced swim test, High dose (3 mg/kg)” value (time spent immobile) was 138 s. The AUC(0-inf) (in vivo) was 2100 ng·h/mL, the Cmax (in vivo) was 2330 ng/mL and the Tmax (in vivo) was 15 min. The half-life (in vivo) was 40.2 min.
`C#CCOc1cc([C@@]23CCC(=O)C[C@@H]2N(C)CC3)ccc1OC` [Compound 15] showed an IC50 [2] of less than 3 µM, an IC50 [3] of less than 3 µM and a pIC50 [4] greater than 5.52.
With `CCOc1ccc([C@@]23CCC(=O)C[C@@H]2N(C)CC3)cc1OCC` [Compound 21] the “Time spent in centre during open field test, Low dose (0.3 mg/kg)” value [6] was 13.7 s, the “Time spent in centre during open field test, High dose (3 mg/kg)” value [6] was 9.8 s and the “Time spent in the centre compared to vehicle (significance)” value ([6]; low dose of 0.3 mg/kg) was “statistically significant increase”. For the same compound, the pIC50 [1] was 7.52, the inhibition [1] was 91% and the “Time spent immobile during forced swim test, Low dose (0.3 mg/kg)” value (time spent immobile) was 105 s. For the same compound, the “Time spent immobile during forced swim test, High dose (3 mg/kg)” value (time spent immobile) was 118 s, the AUC(0-inf) (in vivo) was 1830 ng·h/mL and the Cmax (in vivo) was 2430 ng/mL. For the same compound, the Tmax (in vivo) was 15 min and the half-life (in vivo) was 34.2 min.
For `CCOc1ccc([C@@]23CCC(=O)C[C@@H]2N(C)CC3)cc1OCC1CC1` [Compound 24], the pIC50 [1] was 7.70, the inhibition [1] was 91% and the AUC(0-inf) (in vivo) was 825 ng·h/mL. The Cmax (in vivo) was 492 ng/mL, the Tmax (in vivo) was 15 min and the half-life (in vivo) was 76.8 min.
With `CCOc1ccc([C@@]23CCC(=O)C[C@@H]2N(C)CC3)cc1OC1CCCC1` [Compound 27] the pIC50 [1] was 6.40, the inhibition [1] was 96% and the “Inhibition of TNF-α release compared to vehicle (significance)” value (TNF-α; [8]) was “inhibited TNF-α release at a statistically significant level”. The AUC(0-inf) (in vivo) was 1400 ng·h/mL, the Cmax (in vivo) was 831 ng/mL and the Tmax (in vivo) was 15 min. It also gave a half-life (in vivo) of 58.2 min.
In the case of `CCOc1ccc([C@@]23CCC(=O)C[C@@H]2N(C)CC3)cc1OC` [Compound 31], the pIC50 [4] was greater than 7.00.
For `CCCCOc1cc([C@@]23CCC(=O)C[C@@H]2N(C)CC3)ccc1OCC1CC1` [Compound 37], the pIC50 [1] was 6.10, the IC50 [2] was greater than 30 µM and the IC50 [3] was greater than 30 µM.
With `C=CCOc1cc([C@@]23CCC(=O)C[C@@H]2N(C)CC3)ccc1OCC1CC1` [Compound 38] the pIC50 [1] was 6.40, the IC50 [2] was greater than 30 µM and the IC50 [3] was greater than 30 µM.
`CN1CC[C@]2(c3ccc(OCC4CC4)c(OC4CCCC4)c3)CCC(=O)C[C@H]12` [Compound 39] gave a pIC50 [1] of 5.35, an IC50 [2] greater than 30 µM and an IC50 [3] greater than 30 µM.
In the case of `COc1ccc([C@]23CCC(=O)C=C2N(C)CC3)cc1OC` [Compound 40], the IC50 [2] was greater than 3 µM, the IC50 [3] was greater than 3 µM and the pIC50 [4] was less than 5.52.
With `COc1ccc([C@@]23CCC(=O)C=C2N(C)CC3)cc1OC` [Compound 41] the IC50 [2] was greater than 3 µM, the IC50 [3] was greater than 3 µM and the pIC50 [4] was greater than 5.52.
`COc1ccc([C@@]23CCC(=O)C=C2N(C)CC3)cc1OC1CCCC1` [Compound 42] gave an IC50 [2] greater than 3 µM, an IC50 [3] of less than 3 µM and a pIC50 [4] of less than 5.52.
With `C=CCOc1cc([C@@]23CCC(=O)C=C2N(C)CC3)ccc1OC` [Compound 43] the IC50 [2] was greater than 3 µM, the IC50 [3] was greater than 3 µM and the pIC50 [4] was less than 5.52.
Work on `CCOc1ccc(C23C=CC(=O)CC2N(C)CC3)cc1OCC` (stereo not shown) [Compound 44] yielded an IC50 [2] of less than 3 µM, an IC50 [3] of less than 3 µM and a pIC50 [4] of less than 5.52.
In the case of `COc1ccc([C@@]23CCC(=O)C[C@@H]2N(C)CC3)cc1OC` [Mesembrine, mesembrine, reference compound], the “Qualified Clint” value ([5]; 1 μM, 37° C.) is listed as 16.3 μl/min/10^6 cells, the “Qualified t1/2” value ([5]; 1 μM, 37° C.) is listed as 84.8 and the solubility in water [7] is listed as “scarcely soluble in water”.
For `COc1ccc([C@@]23C=C[C@@H](O)C[C@@H]2N(C)CC3)cc1OC` [mesembrenol], the “activity in 5-HT transporter binding assay” value (5-HT transporter) is given as “potently active” and the “activity against PDE-4B” value (PDE-4B) is given as “potently active”.
